Entries after “also recorded” stand apart in the source; their conditions may differ.
Tests used:
[1] = tested on: ferrets; experiment: Apomorphine-induced emesis in ferrets; format: in vivo, ferret
Protocol: (§1) The method used to test antiemetic activity preclinically follows that described by Gardner et al. (Brit. J. Pharmacol., 116: 3158-3163, 1995) and uses ferrets.
(§2) Sixty minutes before administration of the test substance, ferrets are placed in individual stainless steel cages (40×50×34 cm) with a grid floor. Then, the animals are challenged with apomorphine (0.25 mg/kg s.c.), morphine (0.4 mg/kg i.p.) or cisplatin (10 mg/kg i.p.) and immediately observed over at least a 2-hour period. Parameters recorded include: number of ferrets showing retches and vomits; latency to first retching; latency to first vomiting; number of retches; vomiting (number of vomits); number of emesis periods and mean duration of emesis periods. Retching is defined as a rhythmic respiratory movement against a closed glottis, while vomiting is defined as a forced expulsion of upper gastrointestinal contents.
Where apomorphine is used as the emetogen, amisulpride (or vehicle) was administered subcutaneously (s.c. 30 minutes before administration of apomorphine). Animals (6 per group) were treated with vehicle or amisulpride at 1, 10, or 100 μg/kg given sub-cutaneously. The observation period was 2 hours after apomorphine administration.

[2] = tested on: ferrets; experiment: Morphine-induced emesis in ferrets; format: in vivo, ferret
Protocol: as §1, §2
Where morphine is used as the emetogen, amisulpride (n=6 per group) or vehicle (n=6) is administered intravenously 5 minutes before the administration of morphine. The observation period is 2 hours after administration of the morphine.

[3] = tested on: ferrets; experiment: Cisplatin-induced emesis in ferrets; format: in vivo, ferret
Protocol: as §1, §2
Where cisplatin is used as the emetogen, amisulpride (n=6 per group) or vehicle (n=6) is administered intravenously at least 5 minutes before the administration of cisplatin. The observation period is up to 72 hours, which allows effects on early and late phase emesis to be observed.
More specifically, data are reported from an experiment in which the observation period was 3 hours following cisplatin challenge. Cisplatin induced the occurrence of retches and vomits in 7 and 5 of 9 animals tested respectively. The mean incidences were 79.8±22.2 retches, 3.0±1.1 vomits and 10.7±2.8 emetic periods. Retches and vomits occurred after 85 minutes 6 seconds±7 minutes 53 seconds and 86 minutes 39 seconds±10 minutes 28 seconds respectively amisulpride was given at 0.2, 0.6, 2 and 6 mg/kg. At 0.2 mg/kg the incidence of retches was 23.3±10.8 (a 71% decrease in mean value), of vomits 0.2±0.2 (a 93% decrease) and emesis periods 3.7±2.0 (a 65% decrease). At 0.6 mg/kg the incidence of retches was 62.5±59.0, vomits 1.3±1.1 and emesis periods 3.7±1.3. […] At 2.0 mg/kg the incidence of retches was 3.3±2.5, vomits 0.2±0.2 and emesis periods 0.5±0.3. […] At 6 mg/kg the incidences were 11.7±3.8 retches, 1.2±1.0 vomits and 3.7±1.3 emesis periods.
As indicated above, droperidol is a known agent for the treatment of PONV.

[4] = tested on: patients undergoing routine surgery; experiment: Phase IIa study of prophylaxis of post-operative nausea and vomiting; format: in vivo, human; conditions: single dose at the time of the operation; 24-hour period post-operation
Protocol: A formulation of the invention was prepared, suitable for intravenous administration. It is a 2.5 mg/ml citrate-buffered solution (nominal pH 5.0) of amisulpride. The composition is given below.
The effects of amisulpride are studied in patients undergoing routine surgery in a randomised, controlled, open-label phase IIa study of efficacy of a single dose as prophylaxis of post-operative nausea and vomiting. The primary endpoint is the incidence of nausea and vomiting in the 24-hour period post-operation. The drug is administered at the time of the operation. The secondary endpoints are the nausea and vomiting rates and severity (measured separately) over 0-2 hours, 2-6 hours and 6-24 hours post-operation. In addition, the use of rescue medication and safety/adverse events, are recorded.

[5] = tested on: dog; conditions: cited from earlier work
[6] = UKPAR Special Warnings and Precautions for Use; cited from earlier work
[7] = amisulpride 1 μg/kg s.c. 30 minutes before apomorphine 0.25 mg/kg s.c., 2 hour observation
[8] = amisulpride 3 mg/kg i.v. before morphine, 2 hour observation
[9] = amisulpride 6 mg/kg i.v. before morphine
[10] = amisulpride 6 mg/kg i.v. before morphine, 2 hour observation
[11] = amisulpride 12 mg/kg i.v. before morphine, 2 hour observation
[12] = amisulpride 0.2 mg/kg, 3 hours observation
[13] = amisulpride 0.6 mg/kg, 3 hours observation
[14] = amisulpride 2.0 mg/kg, 3 hours observation
[15] = amisulpride 6 mg/kg, 3 hours observation

For `CCN1CCCC1CNC(=O)c1cc(S(=O)(=O)CC)c(N)cc1OC` (centres unmarked) [Amisulpride], the “number of emesis periods” value [1, 7] was 1.5±0.6, the number of retches [1, 7] was 6.0±2.2 and the number of vomits [1, 7] was 0±0. The “inhibition of apomorphine emesis” value ([1]; amisulpride 10 μg/kg s.c.) was “totally inhibited”, the “inhibition of apomorphine emesis” value ([1]; amisulpride 100 μg/kg s.c.) was “totally inhibited” and the number of retches ([2]; amisulpride 3 mg/kg i.v. 5 minutes before morphine 0.4 mg/kg i.p., 2 hour observation) was 28.7±7.1. The incidence of vomits [2, 8] was “abolished the incidence of vomits”, the “number of emesis periods” value [2, 8] was 5.2±1.4 and the “decrease in emesis periods vs control” value [2, 9] was 56%. For the same compound, the “decrease in retches vs control” value [2, 9] was about 50%, the “decrease in vomits vs control” value [2, 9] was 72% and the “number of emesis periods” value [2, 10] was 3.3±1.1. For the same compound, the number of retches [2, 10] was 17.8±6.8, the number of vomits [2, 10] was 0.5±0.3 and the “number of emesis periods” value [2, 11] was 5.7±1.5. For the same compound, the number of retches [2, 11] was 31.7±11.2, the number of vomits [2, 11] was 0.8±0.4 and the “effect on emetic effects induced by morphine vs vehicle control” value ([2]; i.v., 2 hour observation) was “reduces the emetic effects induced by morphine, in dose-dependent manner”. The incidence of retches ([3]; amisulpride 0.2 mg/kg i.v. before cisplatin 10 mg/kg i.p., 3 hours observation) was 23.3±10.8, the “decrease in emesis periods vs control” value [3, 12] was 65% and the “decrease in mean retches vs control” value [3, 12] was 71%. For the same compound, the “decrease in vomits vs control” value [3, 12] was 93%, the emesis periods [3, 12] was 3.7±2.0 and the incidence of vomits [3, 12] was 0.2±0.2. For the same compound, the “efficacy compared with droperidol” value ([3]; amisulpride 0.6 mg/kg (one animal excluded) and 2 mg/kg vs droperidol 3 mg/kg given 5 minutes before cisplatin) was “better than droperidol at 3 mg/kg; also recorded: more effective than droperidol at 3 mg/kg”, the emesis periods [3, 13] was 3.7±1.3 and the incidence of vomits [3, 13] was 1.3±1.1. For the same compound, the incidence of retches ([3]; amisulpride 0.6 mg/kg, 3 hours observation, one animal had an early, exaggerated response) was 62.5±59.0, the emesis periods [3, 14] was 0.5±0.3 and the incidence of retches [3, 14] was 3.3±2.5. For the same compound, the incidence of vomits [3, 14] was 0.2±0.2, the emesis periods [3, 15] was 3.7±1.3 and the incidence of retches [3, 15] was 11.7±3.8. The incidence of vomits [3, 15] was 1.2±1.0, the “effect on emetic effects of cisplatin vs vehicle control” value ([3]; i.v., 72 hour period, early and late stages) was “reduces the emetic effects of cisplatin, in dose-dependent manner” and the “effect on nausea, vomiting and retching associated with PONV” value [4] was “demonstrate the effect of amisulpride against the nausea as well as the vomiting and retching associated with PONV”. The “effect on apomorphine-induced vomiting” value [5] was “inhibit apomorphine-induced vomiting in the dog” and the “effect on QT interval” value [6] was “induces a dose dependent prolongation of the QT interval”.

Source: patent US12194022B2, “Use of amisulpride as an anti-emetic” (ACACIA PHARMA LIMITED, priority 2010, dated 2025)
